What was measured:
Type in all cases: cell-based
[1] = test system: HeLa (cervical) cell line; test: MTT cytotoxicity assay, HeLa; conditions: Homo sapiens, growth inhibition by 50% after 48 hr treatment
From the text: (§1) The newly synthesized compounds, 3a–d and 6a–c, combined the benefits of the aforementioned 1,3,4-oxadiazol-2(3H)-one and tetrahydropyridazine-3,6-dione moieties with their fatty acid substituent to give a new scaffold. To check the anticancer potency, the compounds 3a–d and 6a–c were screened in vitro for cytotoxicity against MDA-MB-231 (Breast), KCL-22 (Lymphoblastoid), and HeLa (cervical) cell lines, while PBMC (peripheral blood mononuclear cells) were used as a normal cell. Doxorubicin and 5-Fluorouracil were used as standard cytotoxic drugs. A period of 48 hours of drug exposure was chosen to test cytotoxicity. The MTT cell viability assay based on the conversion of the soluble yellowish MTT to the insoluble purple formazan crystal by active mitochondrial […] of living cells was used for the measurement of cell proliferation. The inhibitory concentration (IC50) of 3a–d and 6a–c compounds were screened against the MDA-MB-231, KCL-22, and HeLa cell lines as given in Table 1. The effect of standard drugs (Doxorubicin and 5-Fluorouracil) on the MDA-MB-231, KCL-22, and HeLa cell lines, and PBMC are represented in Fig. 4.
(§2) The MDA-MB-231, KCL-22, and HeLa cell lines were maintained in RPMI 1640 (Sigma Aldrich, USA) culture medium supplemented with 10% heat-inactivated fetal calf serum (Sigma Aldrich, USA), and antibiotic antimycotic solution (Sigma Aldrich, USA).
(§3) The cells were plated at a density of (5×10^4 / well) in 96-well plates and cultured for 24 hours at 37°C. The cytotoxicity of compounds was determined by the MTT assay which involves the percentage viability of a cell in response to variable doses of compounds. After incubation for 48 hours, cell proliferation was measured by adding 20 μL of MTT dye (5 mg/mL in phosphate-buffered saline) per well. The plates were incubated for 4 hours more at 37°C in a humidified chamber containing 5% CO2. Active mitochondrial dehydrogenases of living cells reduced the yellow tetrazolium salt (dye) to an insoluble purple formazan crystal. Formazan crystals formed due to the reduction of tetrazoline dye by viable cells in each well which were dissolved in 150 μL dimethyl sulfoxide, and absorbance was read at 570 nm using a plate reader (Bio-Rad). The percentage of inhibition of cell viability was determined with reference to the untreated control. To determine the IC50 value, a linear regression analysis method was used.

[2] = test system: KCL-22 (Lymphoblastoid) cell line; test: MTT cytotoxicity assay, KCL-22; conditions: Homo sapiens, growth inhibition by 50% after 48 hr treatment
From the text: as §1, §2, §3

[3] = test system: PBMC (peripheral blood mononuclear cells); test: MTT cytotoxicity assay, normal cells PBMC; conditions: 48 hr treatment
From the text: as §1
Fresh blood ([…]) was provided by the Blood Bank JNMC AMU, Aligarh. After dilution with the same volume of PBS, the diluted blood sample was layered on the Ficoll-Histopaque (Sigma Aldrich, USA). The mixture was centrifuged at 400×g for 30 min at 20–22°C followed by separation of the lymphocyte layer. Then the lymphocyte layer was washed and pelleted down with three volumes of PBS twice and resuspended with RPMI-1640 media with antibiotic and antimycotic solution 10%, v/v fetal calf serum (FCS).
as §3

[4] = test system: MDA-MB-231 (Breast) cell line; test: MTT cytotoxicity assay, MDA-MB-231; conditions: Homo sapiens, growth inhibition by 50% after 48 hr treatment
From the text: as §1, §2, §3

CCCCCCCC/C=C\CCCCCCCc1n[nH]c(=O)o1 [3b, 5-[(8Z)-Heptadec-8-en-1-yl]-1,3,4-oxadiazol-2(3H)-one]
IC50 [1]: 12.3 ± 2.4 µM
IC50 [2]: 13.6 ± 1.3 µM
IC50 [3]: > 50 µM
IC50 [4]: 9.3 ± 1.3 µM

CCCCCCCCCCCCCCCCCc1n[nH]c(=O)o1 [3d, 5-Heptadecyl-1,3,4-oxadiazol-2(3H)-one]
IC50 [1]: 26.2 ± 1.5 µM
IC50 [2]: 11.8 ± 1.6 µM
IC50 [3]: 41.4 ± 1.4 µM
IC50 [4]: 15.4 ± 1.8 µM

COc1cccc2c1C(=O)c1c(O)c3c(c(O)c1C2=O)C[C@@](O)(C(=O)CO)C[C@@H]3O[C@H]1C[C@H](N)[C@H](O)[C@H](C)O1 [Doxorubicin, reference compound]
IC50 [1]: 1.9 ± 0.09 µM
IC50 [2]: 1.1 ± 0.08 µM
IC50 [3]: 9.39 ± 1.9 µM
IC50 [4]: 1.6 ± 0.09 µM

O=c1[nH]cc(F)c(=O)[nH]1 [5-Fluorouracil, reference compound]
IC50 [1]: 2.18 ± 0.8 µM
IC50 [2]: 2.52 ± 1 µM
IC50 [3]: 11.1 ± 2.3 µM
IC50 [4]: 2.42 ± 0.09 µM

C=CCCCCCCCCc1n[nH]c(=O)o1 [3a, 5-(Dec-9-en-1-yl)-1,3,4-oxadiazol-2(3H)-one]
IC50 [1]: 17.1 ± 2.1 µM
IC50 [2]: 15.5 ± 1.8 µM
IC50 [3]: 39.7 ± 1.4 µM
IC50 [4]: 12.3 ± 1.6 µM

CCCCCC[C@@H](O)C/C=C\CCCCCCCc1n[nH]c(=O)o1 [3c, 5-[(8Z,11R)-11-Hydroxyheptadec-8-en-1-yl]-1,3,4-oxadiazol-2(3H)-one]
IC50 [1]: 9.6 ± 1.2 µM
IC50 [2]: 8.3 ± 1.2 µM
IC50 [3]: 46.3 ± 1.3 µM
IC50 [4]: 6.3 ± 1.1 µM

C=CCCCCCCCCC(=O)N1NC(=O)CCC1=O [6a, 1-(Undec-10-enoyl)tetrahydropyridazine-3,6-dione]
IC50 [1]: 19.3 ± 1.4 µM
IC50 [2]: 16.4 ± 2.1 µM
IC50 [3]: 44.8 ± 1.3 µM
IC50 [4]: 18.9 ± 2.2 µM

CCCCCCCCCCCCCCCC(=O)N1NC(=O)CCC1=O [6c, 1-Hexadecanoyltetrahydropyridazine-3,6-dione]
IC50 [1]: 21.2 ± 1.6 µM
IC50 [2]: 17.6 ± 2.2 µM
IC50 [3]: 43.6 ± 1.4 µM
IC50 [4]: 25.7 ± 1.4 µM

CCCCCCCC/C=C\CCCCCCCC(=O)N1NC(=O)CCC1=O [6b, 1-[(9Z)-Octadec-9-enoyl]tetrahydropyridazine-3,6-dione]
IC50 [1]: 13.4 ± 2.4 µM
IC50 [2]: 8.1 ± 1.4 µM
IC50 [3]: 43.2 ± 1.5 µM
IC50 [4]: 11.1 ± 1.8 µM

Reference: PMC4727767, “Synthesis and In Vitro Biological Evaluation of 1,3,4-Oxadiazol-2(3H)-one and Tetrahydropyridazine-3,6-dione Derivatives of Fatty Acids” (Scientia Pharmaceutica, 2015)
